Data on one compound can be found in patent US10076549B2, “Gastric health supplement and methods thereof” (SmartPak Equine LLC, priority 2012, dated 2018).

Structures are written as SMILES.

One test has as its system equine ulcers. Conditions: background; cited from earlier work.
Test [1] concerns nonglandular gastric ulcers. Put plainly: 42-day 2-period crossover equine health study: gastroscopic nonglandular gastric ulcer number (NGN) and severity (NGS) scores. It counts as in vivo, horse. The note with it: by Day 14. The procedure: Eight healthy Thoroughbred and Thoroughbred-cross horses from the Equine Health Studies Program (EHSP) herd were used in this study. The study was performed as a 42-day 2-period crossover using a treatment group (n=8) and an untreated control (n=8).
All horses were stall-confined and fed mixed grass hay and sweet feed (OMOLENE® 100; Gray Summit, Mo.). Horses were assigned to the two treatment groups stratified by gastric ulcer score recorded on day 1 of period 1. Treated horses were fed with a Supplement composition of Example 1 above (40 g, twice daily) added to the sweet feed and control horses received no feed supplement.
Prior to beginning the study, all horses underwent physical examination. From Day 1 to Day 14, all horses were treated with omeprazole (GASTROGARD® paste, Merial Limited, Duluth, Ga.; 4 mg/kg, orally q24 h), then omeprazole was discontinued for the remainder of the study. All the horses remained stall-confined. From Day 28 to Day 35, all the horses underwent feed-deprivation, where they were muzzled and deprived of feed for 24 hours and then fed for 24 hours for a total of 96 hours to induce ulcers.
During the feed-deprivation days, the horses were fed 10% of their normal sweet feed, and the treated horses received the Supplement composition of Example 1 above (SMARTPAK® Equine, Plymouth, Mass.). From Day 35 to Day 42, all the horses returned to their normal diet to allow for recovery. The timelines of the events occurring during the period of the 42-day study were depicted in FIG. 1.
(§1) Gastroscopic examinations were performed on all the horses on Day 0, 14, 28, 35 and 42 and nonglandular gastric ulcer number (NGN) and severity (NGS) scores were assigned by the PI (FMA) who was masked to treatment (FIG. 2) (MacAllister et al. 1997). During gastroscopy, gastric juice was aspirated and pH measured.

The nature of test [2]: Gastric juice pH aspirated during gastroscopy, 42-day crossover study. It counts as in vivo, horse. Conditions: by Day 14, omeprazole 4 mg/kg orally q24 h. The protocol:
as §1
Gastric juice pH values can be determined as follows: gastric juice of a subject animal is aspirated through the biopsy channel of an endoscope and pH is measured at specified time intervals, particularly 1 hour before and then 1 hour after administration of a therapeutic agent or Supplement composition as disclosed herein. Gastric juice pH values can be compared between the times.

[3] abbreviates: omeprazole paste 4 mg/kg orally q24 h Day 1-14.

Regarding `COc1ccc2nc([S+]([O-])Cc3ncc(C)c(OC)c3C)[nH]c2c1` (stereo not drawn) [omeprazole], in the test with equine ulcers, the “gastric juice pH value in horses” value is given as “increased” and the treating equine ulcers entry was “effective”. In test [1] (omeprazole 4 mg/kg orally q24 h, 6/8 horses), the “horses with healed gastric ulcers in each study group” value came out at 75%. In test [1] (setting [3]), the NGN score result is listed as “significantly decreased” and the NGS score result was “significantly decreased”. For the same compound, the “gastric juice pH” value in test [2] is recorded as “increased significantly”.
